From ChEMBL document CHEMBL1135102, “2-Amino-7-deazaadenine forms stable base pairs with cytosine and thymine” (Bioorg Med Chem Lett, 2002)

Legend:
Type in all cases: ADME
[1] = Kinetic parameter Km was determined
[2] = Kinetic parameter Vmax was determined
[3] = Efficiency expressed as ratio of Vmax to that of Km was determined

Km [1] | Vmax [2] | Ratio [3] | SMILES
22 µM | 0.994 pmol/U/min | 0.0452 | Nc1ncnc2c1ncn2[C@H]1C[C@H](O)[C@@H](COP(=O)(O)OP(=O)(O)OP(=O)(O)O)O1
62 µM | 13.1 pmol/U/min | 0.211 | Nc1nc2c(ncn2[C@H]2C[C@H](O)[C@@H](COP(=O)(O)OP(=O)(O)OP(=O)(O)O)O2)c(=O)[nH]1 [DEOXYGUANOSINE TRIPHOSPHATE]
25.6 µM | 18.7 pmol/U/min | 0.73 | Nc1ccn([C@H]2C[C@H](O)[C@@H](COP(=O)(O)OP(=O)(O)OP(=O)(O)O)O2)c(=O)n1 [DEOXYCYTIDINE TRIPHOSPHATE]
